Data on 5 compounds can be found in article PMC10633902, “Investigating the antimicrobial activity, cytotoxicity, and action mechanism of acylated and amidated derivatives of AurH1 antifungal peptide” (BMC Microbiology, 2023).

Series [1] relates to Candida glabrata (ATCC 90,030). The series can be described thus: microbe, parasite or virus in culture. In kind it is cell-based. As to the method:
(§1) The human skin fibroblast (Hu02 cell) and human breast cancer cells (MDA-MB-231 and SKBR-3 cell lines) were purchased from the National Cell Bank of Iran, Pasture Institute of Ira) for cytotoxicity test. Antimicrobial effects of the Ac-AurH1, AurH1-NH2, and AurH1 against the selected bacteria and fungi were conducted using a standard serial dilution method in a 96-well microplate. For this purpose, the desired fungal and bacterial strains were grown overnight at 37 °C (Some of the fungi were incubated at 25 °C) in related media (SDA for fungi and MHA for bacteria). […] Next, serially diluted synthetic peptides in a volume of 100 μL were added to the microtitre plates, followed by 100 μL of bacteria and fungi to give a final inoculum of 5 × 10^5 colony-forming units (CFU)/ml (a 0.5 McFarland standard inoculum). […] In this test, penicillin and streptomycin antibiotics for bacteria and fluconazole, nystatin, and amphotericin B for fungal strains were used as antibiotic control. […] All tests were repeated three times independently.

Series [2] has as its system Candida albicans (ATCC 10,231). The series can be described thus: microbe, parasite or virus in culture. In kind it is cell-based. As to the method:
as §1

For series [3], the system named is Aspergillus niger (ATCC 9142). The series can be described thus: microbe, parasite or virus in culture. In kind it is cell-based. The method, then:
as §1

In series [4] the test system is Candida krusei (ATCC 28,870). The series can be described thus: microbe, parasite or virus in culture. In kind it is cell-based. The method, then:
as §1

The test system of series [5] is Aspergillus flavus (ATCC 24,109). The series can be described thus: microbe, parasite or virus in culture. It counts as cell-based. The method, then:
as §1

A further series has as its system C. albicans. The series can be described thus: Killing kinetic assay (time of killing). In kind it is cell-based, Candida albicans. Particulars: 1X MIC concentration.
In series [6] the test system is Staphylococcus aureus (ATCC 25,923). The series can be described thus: microbe, parasite or virus in culture. It counts as cell-based. The method, then:
as §1

For series [7], the system named is Escherichia coli (ATCC 25,922). The series can be described thus: microbe, parasite or virus in culture. In kind it is cell-based. As to the method:
as §1

Series [8] has as its system Human skin fibroblast (Hu02 cells). In kind it is cell-based. The method, then: Toxicity of peptides on Human skin fibroblast (Hu02 cells) and two human breast cancer cell lines (MDA-MB-231 and SKBR3 cell lines) measured by an MTT assay. At first, cell lines with a density of 1 × 10^5 cells were cultured in the wells of 96-well plates for 24 h under standard conditions (37 °C temperature, 5% CO2 atmosphere with 95% relative humidity). After that, the old medium was replaced with fresh medium (with 10% FBS) containing different peptide concentrations, and the cells were incubated for 24 h. A medium without peptide was used as a negative control. After 24 h of incubation and washing the wells with PBS, the medium (containing 10% FBS) was replaced with fresh medium containing 10% MTT solution (freshly prepared 5 mg/ml MTT in PBS), and the plate was incubated for four h in 5% CO2, at 37 °C. Next, the medium was removed from the wells, and 100 µL DMSO was added. Afterward, the plate was shaken to dissolve Formazan crystals. Finally, by a microplate reader (STAT FAX 2100, BioTek, Winooski, USA), the absorbance values were measured at a wavelength of 595 nm. The percentage of toxicity was calculated as follows: […]

The subject of another series is human red blood cells. It counts as cell-based. As to conditions: 1 h. As to the method:
A hemolytic assay was performed to investigate the effects of peptides on human red blood cells. First, 5 ml of fresh human blood was taken from a volunteer. After that, 20% (v/v) suspension of human erythrocytes was prepared and diluted in PBS (1:20). Next, 100 µL of this blood suspension was added in triplicate to 100 µL of a 2-fold serial dilution series of the peptide in a 96‐well plate. 1% Triton-X 100 was used as a positive control to lyse 100% of RBCs, and sterile 0.9% NaCl solution was used as a negative control. Then the plates were incubated at 37 °C for 1 h and centrifuged at 3500 rpm for 10 min. Next, 100 µL of the supernatant was transferred to a new 96-well plate to measure the absorbance at 414 nm using a microplate reader (STAT FAX 2100, BioTek, Winooski, USA). Finally, the percentage of hemolysis was calculated as follows: […]

The mark [9] stands for this setting: C. glabrata, mean of 3 independent tests.
The mark [10] stands for this setting: C. albicans, mean of 3 independent tests.
[11] abbreviates: A. niger, mean of 3 independent tests.
The mark [12] stands for this setting: C. krusei, mean of 3 independent tests.
Where [13] appears, read: A. flavus, mean of 3 independent tests.

In brackets after ≈: the same amount, converted by molar mass. Read-outs that look alike come from different tables or passages of the source. No end group written: not given here.

As for `OC(Cn1cncn1)(Cn1cncn1)c1ccc(F)cc1F` [Flu, Fluconazole, reference compound], the MBC in series [1] (Nakaseomyces glabratus, ATCC90, C. glabrata, mean of 3 independent tests) was 500 µg/mL (≈ 1630 µM); in series [2] (Candida albicans, ATCC10, C. albicans, mean of 3 independent tests), 500 µg/mL (≈ 1630 µM); in series [3] (Aspergillus niger, ATCC9142, A. niger, mean of 3 independent tests), above 1000 µg/mL; in series [4] (Pichia kudriavzevii, ATCC28, C. krusei, mean of 3 independent tests), 250 µg/mL (≈ 816 µM). The MIC in series [1] (Nakaseomyces glabratus, ATCC90, C. glabrata, mean of 3 independent tests, read-out: MIC) was 125 µg/mL (≈ 408 µM); in series [2] (Candida albicans, ATCC10, C. albicans, mean of 3 independent tests, read-out: MIC) it was 62.5 µg/mL (≈ 204 µM); in series [3] (Aspergillus niger, ATCC9142, A. niger, mean of 3 independent tests, read-out: MIC) it was 500 µg/mL (≈ 1630 µM); in series [4] (Pichia kudriavzevii, ATCC28, C. krusei, mean of 3 independent tests, read-out: MIC), 62.5 µg/mL (≈ 204 µM); in series [5] (Aspergillus flavus, ATCC24, A. flavus, mean of 3 independent tests, read-out: MIC) it was above 1000 µg/mL. The “time to kill all C. albicans (maximum fungicidal effect)” value in the series on C. albicans is “could not eliminate C. albicans after 24 h”.

As for `C[C@@H]1[C@H](O)[C@@H](C)/C=C/C=C/CC/C=C/C=C/C=C/C=C/C(O[C@H]2O[C@H](C)[C@@H](O)[C@H](N)[C@@H]2O)CC2O[C@](O)(CC(O)C(O)CCC(O)CC(O)CC(O)CC(=O)O[C@H]1C)CC(O)C2C(=O)O` (stereo partly drawn) [Nys, Nystatin, reference compound], the MBC (MFC) amounted to 3.9 µg/mL (≈ 4.21 µM) in series [1] (setting [9]); 3.90 µg/mL (≈ 4.21 µM) in series [2] (setting [10]); 125 µg/mL (≈ 135 µM) in series [3] (setting [11]); 3.90 µg/mL (≈ 4.21 µM) in series [4] (setting [12]); 62.50 µg/mL (≈ 67.5 µM) in series [5] (setting [13]). In addition, the MIC in series [1] (setting [9]) is 3.9 µg/mL (≈ 4.21 µM); in series [2] (setting [10]), 1.95 µg/mL (≈ 2.11 µM); in series [3] (setting [11]) it was 31.25 µg/mL (≈ 33.7 µM); in series [4] (setting [12]), 1.95 µg/mL (≈ 2.11 µM); in series [5] (setting [13]) it was 7.81 µg/mL (≈ 8.43 µM). Also, in the series with C. albicans, the “time to kill all C. albicans (maximum fungicidal effect)” value worked out at 8 h.

Consider `[H]/N=C(/N)N[C@H]1[C@H](O)[C@@H](O)[C@H](O[C@@H]2O[C@@H](C)[C@](O)(C=O)[C@H]2O[C@@H]2O[C@@H](CO)[C@H](O)[C@@H](O)[C@@H]2NC)[C@@H](N/C(N)=N\[H])[C@@H]1O` [Strep, Streptomycin, reference compound], for which the MIC in [6] (Staphylococcus aureus, ATCC25, S. aureus, mean of 3 independent tests, read-out: MIC) worked out at 62.5 µg/mL (≈ 107 µM); in [7] (Escherichia coli, ATCC25, E. coli, mean of 3 independent tests, read-out: MIC) it was 3.9 µg/mL (≈ 6.71 µM).

Turning to Ac-WFKIIKK [Ac-AurH1, Ac-WFKIIKK], the toxicity entry in [8] is “more than 10%”. For the same compound, the MIC in [6] (ATCC 25, 24 h) was above 1000 µg/mL; in [1] (ATCC 90, 24 h), above 1000 µg/mL; in [2] (ATCC 10, 24 h), 250 µg/mL; in series [7] (ATCC 25, 24 h) it was above 1000 µg/mL; in [3] (ATCC 9142, 24 h), above 1000 µg/mL; in [4] (ATCC 28, 24 h) it was 500 µg/mL. In addition, in series [5] (ATCC 24, 24 h), the MIC is reported as above 1000 µg/mL. For the same compound, the “MBC (MFC)” value in series [2] (ATCC 10, 24 h) is above 1000 µg/mL; in [4] (ATCC 28, 24 h), above 1000 µg/mL. The “HC50 (concentration that lyses 50% of red blood cells)” value in the series on human red blood cells was 10,127 µg/ml.

Turning to Penicillin [reference compound], the MIC in [6] (S. aureus, mean of 3 independent tests) is listed as 0.45/NA µg/mL; in series [7] (E. coli, mean of 3 independent tests), 31.25/NA µg/mL.
